The text below walks through data of patent US20170274083A1, “NASAL COMPOSITION HAVING ANTI-VIRAL PROPERTIES” (SOFIBEL S.A.S.-A COMPANY ULTIMATELY OWNED BY CHURCH & …, priority 2014, published 2017).

The test system of the experiment is HRV-A16. Briefly: Anti-viral effect: inhibition of HRV-A16 replication (viral RNA). It is filed as cell-based, human rhinovirus. The following applies: applied 1 h before infection; change in viral RNA; fully differentiated human airway epithelial cells. As for the experimental part:
The example 1 composition is tested according to the test of evaluation of the potential activity against HRV-A16 (a rhinovirus responsible for colds) on fully differentiated human airway epithelial cells culture. The compositions are first applied before infection for one hour and the replication is carried out for 4 hours. 3 rinsing steps with the formulations are carried out. The remaining is collected and the RNA is dosed after cell lysis. The same collecting step is carried out 24 hours after and the same dosing step is carried out. The percentage expressed the changes in viral RNA, resulting in the % of inhibition of HRV-A16 replication, leading to the anti-viral efficacy. The tested composition is tested against rupintrivir (a known antiviral compound, providing an almost complete response).

With `CCOC(=O)/C=C/[C@H](C[C@@H]1CCNC1=O)NC(=O)[C@@H](CC(=O)[C@@H](NC(=O)c1cc(C)on1)C(C)C)Cc1ccc(F)cc1` [Rupintrivir, rupintrivir], the “Inhibition (%) of HRV-A16 replication” value is listed as 99.62%.
